# Test results from patent US8168779B2, “Anhydrous crystalline β-maltose, its preparation and uses” (priority 2006, dated 2012).
# How the values were obtained:
# [1] = mercury filling method; for Intrusion volume: initial pressure 15 kPa; for Median pore diameter / Mode pore diameter: control values originate from space between crystal particles, not pores
# [2] = Deionized water-solidifying test (base for solidifying moisture-containing compositions); type: physicochemical; settings: 25° C.; for (Appearance) / Condition: after 20 hours from the dissolution; for Time of solidification completed / Time of solidification started: monitored for 2 hours
# Source text: After completing the dissolution, each test solution was further stirred for four minutes and then the stirring was stopped. Successively, each test solution was left to stand and a solidification of the test solution by the crystallization of hydrous crystalline maltose was monitored macroscopically for two hours. In the cases of the solidified samples, the time of starting the crystallization and that of completing the solidification were checked. (However, the test solution dissolving 18.8 g of crystal was stopped stirring at three minutes after the dissolution because the crystallization of hydrous crystalline maltose was started immediately.) After monitoring macroscopically for two hours, each vessel containing any one of the sample solutions was closed and further left to stand for 18 hours. Then, the condition (appearance) of the test samples after 20 hours from the dissolution was monitored macroscopically and evaluated by the following three phases: (1) clear solution; (2) clouded solution; and (3) solidified. The samples prepared by using 10.0 g, 11.5 g, 13.3 g, or 18.8 g of the anhydrous crystalline α-maltose used in Example 2, as a substitute of the test samples, were treated by the same procedure as controls. The test was carried out in a room where a temperature was kept at 25° C. The results of each sample after 2 and 20 hours are shown in Table 5 and FIG. 13, and Table 6 and FIG. 14, respectively.
# [3] = Hygroscopicity test (moisture content under controlled relative humidity); type: physicochemical; settings: 27° C.
# Procedure: Moisture contents of the samples at respective periods were measured based on the change of weight from the start of the test. The moisture contents of the samples at the start of the test were measured by Karl Fischer's method.
# [4] = 8.2 g dissolved in 10 g deionized water (45.0%)
# [5] = 8.2 g dissolved in 10 g deionized water (calc. conc. 45.0%)
# [6] = 10.0 g dissolved in 10 g deionized water (50.0%)
# [7] = 10.0 g dissolved in 10 g deionized water (calc. conc. 50.0%)
# [8] = 11.5 g dissolved in 10 g deionized water (53.5%)
# [9] = 11.5 g dissolved in 10 g deionized water (calc. conc. 53.5%)
# [10] = 13.3 g dissolved in 10 g deionized water (calc. conc. 57.0%)
# [11] = 18.8 g dissolved in 10 g deionized water (calc. conc. 65.0%)
smiles,measurement,setting,value
OC[C@H]1O[C@H](O[C@H]2[C@H](O)[C@@H](O)[C@H](O)O[C@@H]2CO)[C@H](O)[C@@H](O)[C@@H]1O [Anhydrous crystalline β-maltose (Control 3)],Intrusion volume,[1],(No pore)
same,Median pore diameter,[1],14.70 μm
same,Mode pore diameter,[1],25.70 μm
OC[C@H]1O[C@H](O[C@H]2[C@H](O)[C@@H](O)[C@H](O)O[C@@H]2CO)[C@H](O)[C@@H](O)[C@@H]1O [Anhydrous crystalline β-maltose converted by the ethanol tre],(Appearance),[2]; [4],(Clear solution)
same,Condition,[2]; [4],Not solidified
same,Time of solidification completed,[2]; [5],Not solidified
same,Time of solidification started,[2]; [5],Not solidified
same,(Appearance),[2]; [6],(Clear solution)
same,Condition,[2]; [6],Not solidified
same,Time of solidification completed,[2]; [7],Not solidified
same,Time of solidification started,[2]; [7],Not solidified
same,(Appearance),[2]; [8],(Clouded solution)
same,Condition,[2]; [8],Not solidified
same,Time of solidification completed,[2]; [9],Not solidified
same,Time of solidification started,[2]; [9],Not solidified
same,Condition,[2]; 13.3 g dissolved in 10 g deionized water (57.0%),Solidified
same,Time of solidification completed,[2]; [10],8.0 min
same,Time of solidification started,[2]; [10],6.0 min
same,Condition,[2]; 18.8 g dissolved in 10 g deionized water (65.0%),Solidified
same,Time of solidification completed,[2]; [11],3.5 min
same,Time of solidification started,[2]; [11],3.0 min
same,Intrusion volume,[1],1.05 mL/g
same,Median pore diameter,[1],1.26 μm
same,Mode pore diameter,[1],1.44 μm
"OCC1OC(OC2C(CO)OC(O)C(O)C2O)C(O)C(O)C1O (stereo not drawn) [HC β-Mal (Control 1), Hydrous crystalline β-maltose]",Moisture content of samples,"[3]; RH 47% (lithium nitrate), 0 hour (start, Karl Fischer)","5.24 %, w/w"
same,Moisture content of samples,"[3]; RH 47% (lithium nitrate), 2 hours","5.23 %, w/w"
same,Moisture content of samples,"[3]; RH 47% (lithium nitrate), 4 hours","5.23 %, w/w"
same,Moisture content of samples,"[3]; RH 47% (lithium nitrate), 24 hours","5.23 %, w/w"
same,Moisture content of samples,"[3]; RH 47% (lithium nitrate), 96 hours","5.26 %, w/w"
same,Moisture content of samples,"[3]; RH 47% (lithium nitrate), 192 hours","5.23 %, w/w"
same,Moisture content of samples,"[3]; RH 58% (sodium bromide), 0 hour (start, Karl Fischer)","5.24 %, w/w"
same,Moisture content of samples,"[3]; RH 58% (sodium bromide), 2 hours","5.22 %, w/w"
same,Moisture content of samples,"[3]; RH 58% (sodium bromide), 4 hours","5.25 %, w/w"
same,Moisture content of samples,"[3]; RH 58% (sodium bromide), 6 hours","5.26 %, w/w"
same,Moisture content of samples,"[3]; RH 58% (sodium bromide), 8 hours","5.25 %, w/w"
same,Moisture content of samples,"[3]; RH 58% (sodium bromide), 24 hours","5.25 %, w/w"
same,Moisture content of samples,"[3]; RH 58% (sodium bromide), 96 hours","5.28 %, w/w"
same,Moisture content of samples,"[3]; RH 58% (sodium bromide), 192 hours","5.26 %, w/w"
same,Moisture content of samples,"[3]; RH 75% (sodium chloride), 0 hour (start, Karl Fischer)","5.24 %, w/w"
same,Moisture content of samples,"[3]; RH 75% (sodium chloride), 2 hours","5.21 %, w/w"
same,Moisture content of samples,"[3]; RH 75% (sodium chloride), 4 hours","5.25 %, w/w"
same,Moisture content of samples,"[3]; RH 75% (sodium chloride), 6 hours","5.25 %, w/w"
same,Moisture content of samples,"[3]; RH 75% (sodium chloride), 8 hours","5.25 %, w/w"
same,Moisture content of samples,"[3]; RH 75% (sodium chloride), 24 hours","5.25 %, w/w"
same,Moisture content of samples,"[3]; RH 75% (sodium chloride), 96 hours","5.29 %, w/w"
same,Moisture content of samples,"[3]; RH 75% (sodium chloride), 192 hours","5.23 %, w/w"
same,Moisture content of samples,"[3]; RH 90% (barium chloride), 0 hour (start, Karl Fischer)","5.24 %, w/w"
same,Moisture content of samples,"[3]; RH 90% (barium chloride), 2 hours","5.26 %, w/w"
same,Moisture content of samples,"[3]; RH 90% (barium chloride), 4 hours","5.27 %, w/w"
same,Moisture content of samples,"[3]; RH 90% (barium chloride), 6 hours","5.26 %, w/w"
same,Moisture content of samples,"[3]; RH 90% (barium chloride), 8 hours","5.26 %, w/w"
same,Moisture content of samples,"[3]; RH 90% (barium chloride), 24 hours","5.24 %, w/w"
same,Moisture content of samples,"[3]; RH 90% (barium chloride), 96 hours","5.61 %, w/w"
same,Moisture content of samples,"[3]; RH 90% (barium chloride), 192 hours","5.36 %, w/w"
